Test [1] concerns HEK293. As to the kind of experiment: cells. It counts as functional, Homo sapiens, ATCC CRL1573. The note with it: Homo sapiens, ATCC CRL1573, HEK293; ASSAY_TEST Inhibition of Cell Viability; detection method Resazurin; Fluorescence (ex560/em590); MEDIA DMEM with 10% FBS; plate type 384well; TC; CORNING #3712; time 18 hr. (In general: Resazurin is reduced to fluorescent resorufin, in cell work by metabolically active cells.)

Test [2] has as its system Cryptococcus neoformans.
Description: Antifungal activity against Cryptococcus neoformans H99 ATCC 208821 (CO-ADD:FG_002); MIC in YNB media using NBS plates, by Resazurin OD(600-570)
Test [3] relates to Staphylococcus aureus. The test is described as follows: microbe, parasite or virus in culture. The following applies: ATCC 43300, 18 h, ASSAY_TEST Inhibition of Bacterial Growth, detection method Absorption (OD600), MEDIA CAMHB, plate type 384well, NBS, CORNING #3640.
Description: Antibacterial activity against Staphylococcus aureus MRSA ATCC 43300 (CO-ADD:GP_020); MIC in CAMBH media, using NBS plates, by OD(600)
Test [4] concerns Escherichia coli. The test is described as follows: microbe, parasite or virus in culture. The note with it: ATCC 25922, 18 h, ASSAY_TEST Inhibition of Bacterial Growth, detection method Absorption (OD600), MEDIA CAMHB, plate type 384well, NBS, CORNING #3640.
Description: Antibacterial activity against Escherichia coli ATCC 25922 (CO-ADD:GN_001); MIC in CAMBH media using NBS plates, by OD(600)
The test system of test [5] is Klebsiella pneumoniae. The test is described as follows: microbe, parasite or virus in culture. The following applies: ATCC 700603, 18 h, ASSAY_TEST Inhibition of Bacterial Growth, detection method Absorption (OD600), MEDIA CAMHB, plate type 384well, NBS, CORNING #3640.
Description: Antibacterial activity against Klebsiella pneumoniae MDR ATCC 70063 (CO-ADD:GN_003); MIC in CAMBH media using NBS plates, by OD(600)
Test [6] relates to Pseudomonas aeruginosa. The test is described as follows: microbe, parasite or virus in culture. The following applies: ATCC 27853, 18 h, ASSAY_TEST Inhibition of Bacterial Growth, detection method Absorption (OD600), MEDIA CAMHB, plate type 384well, NBS, CORNING #3640.
Description: Antibacterial activity against Pseudomonas aeruginosa ATCC 27853 (CO-ADD:GN_042); MIC in CAMBH media using NBS plates, by OD(600)
The test system of test [7] is Acinetobacter baumannii. As to the kind of experiment: microbe, parasite or virus in culture. The following applies: ATCC 19606, 18 h, ASSAY_TEST Inhibition of Bacterial Growth, detection method Absorption (OD600), MEDIA CAMHB, plate type 384well, NBS, CORNING #3640.
Description: Antibacterial activity against Acinetobacter baumannii ATCC 19606 (CO-ADD:GN_034); MIC in CAMBH media using NBS plates, by OD600
The test system of test [8] is Candida albicans. The test is described as follows: microbe, parasite or virus in culture. The note with it: ATCC 90028, ASSAY_TEST Inhibition of Fungal Growth, detection method Absorption (OD530), plate type 384well, NBS, CORNING #3640.
Description: Antifungal activity against Candida albicans ATCC 90028 (CO-ADD:FG_001); MIC in YNB media using NBS plates, by OD630

In brackets after ≈: the same amount, converted by molar mass. Structures can show the parent of a compound that is named as a salt. Some results are limits rather than exact numbers.

As usually defined, the CC50 is the concentration at which the toxic effect on the cells reaches its halfway point.

For the compound `CCn1cc(C(=O)O)c(=O)c2ccc(C)nc21` [NALIDIXIC ACID], in test [1], the CC50 is more than 10 µM. Besides, the MIC in test [2], in test [3], in test [4], in test [5], in test [6] and in test [7] was more than 10 µM each time. The same compound registered an MIC in test [8] of more than 10 µM.
In test [1], `CN(C)C1C(=O)C(C(N)=O)=C(O)C2(O)C(=O)C3=C(O)c4c(O)ccc(Cl)c4C(O)C3CC12` (configuration not stated) showed a CC50 of more than 10 µM. Further, the MIC in test [2] is more than 10 µM; in test [3], 1.25 µM (≈ 0.581 µg/mL); in test [4], 5 µM (≈ 2.32 µg/mL); in test [5] it was more than 10 µM; in test [6], 2.5 µM (≈ 1.16 µg/mL); in test [7], more than 10 µM. This compound returned an MIC in test [8] of more than 10 µM.
Consider `CN(C)[C@@H]1C(O)=C(C(N)=O)C(=O)[C@@]2(O)C(O)=C3C(=O)c4c(O)cccc4[C@@](C)(O)[C@H]3C[C@@H]12` [TETRACYCLINE], for which the CC50 in test [1] is more than 10 µM. Further, the MIC in test [2], in test [3], in test [4], in test [5], in test [6] and in test [7] was more than 10 µM throughout. Further, the MIC in test [8] was more than 10 µM.
As to `CC1COc2c(N3CCN(C)CC3)c(F)cc3c(=O)c(C(=O)O)cn1c23` (configuration not stated) [OFLOXACIN], in test [1], the CC50 is more than 10 µM. For the same compound, the MIC in test [2] was more than 10 µM; in test [3], 1.25 µM (≈ 0.452 µg/mL); in test [4], not above 0.0781 µM; in test [5] it was 5 µM (≈ 1.81 µg/mL); in test [6] it was 1.25 µM (≈ 0.452 µg/mL); in test [7] it was 5 µM (≈ 1.81 µg/mL). This compound showed an MIC in test [8] of more than 10 µM.
In test [1], `NC1CCN(c2nc3c(cc2F)c(=O)c(C(=O)O)cn3-c2ccc(F)cc2F)C1` (configuration not stated) [TOSUFLOXACIN TOSYLATE] returned a CC50 of more than 10 µM. Moreover, the MIC is more than 10 µM in test [2]; not above 0.0781 µM in test [3]; not above 0.0781 µM in test [4]; 1.25 µM in test [5]; 0.312 µM in test [6]; 0.625 µM in test [7]. The MIC in test [8] was more than 10 µM.
The compound `CCN(CC)C(=S)SSC(=S)N(CC)CC` gave a CC50 in test [1] of 5.04 µM. Further, the MIC in test [2] is 5 µM (≈ 1.48 µg/mL); in test [3], more than 10 µM; in test [4] it was more than 10 µM; in test [5], more than 10 µM; in test [6], more than 10 µM; in test [7], more than 10 µM. In test [8], this compound came in with an MIC of 2.5 µM (≈ 0.741 µg/mL).
In the case of `CN(CCCN1c2ccccc2CCc2ccccc21)CC(=O)c1ccc(Cl)cc1` [LOFEPRAMINE], the CC50 in test [1] was more than 10 µM. Moreover, the MIC in test [2], in test [3], in test [4], in test [5], in test [6] and in test [7] was more than 10 µM each time. This compound also gave an MIC in test [8] of more than 10 µM.
For `COc1cccc2c1C(=O)c1c(O)c3c(c(O)c1C2=O)C[C@@](O)(C(=O)CO)C[C@@H]3O[C@H]1C[C@H](N)[C@@H](O)[C@H](C)O1` [EPIRUBICIN HYDROCHLORIDE], the CC50 in test [1] amounted to 1.14 µM. Also, the MIC in test [2] is more than 10 µM; in test [3], 10 µM; in test [4] it was more than 10 µM; in test [5], more than 10 µM; in test [6], more than 10 µM; in test [7], more than 10 µM. Besides, the MIC in test [8] is more than 10 µM.
`c1ccc(-c2ccc(C(c3ccccc3)n3ccnc3)cc2)cc1` (configuration not stated) [BIFONAZOLE]: the CC50 in test [1] is more than 10 µM. The MIC in test [2] was 10 µM (≈ 3.1 µg/mL); in test [3], more than 10 µM; in test [4], more than 10 µM; in test [5], more than 10 µM; in test [6], more than 10 µM; in test [7], more than 10 µM. The compound also returned an MIC in test [8] of more than 10 µM.
As to `CC[C@H]1OC(=O)[C@H](C)[C@@H](O[C@H]2C[C@@](C)(OC)[C@@H](O)[C@H](C)O2)[C@H](C)[C@@H](O[C@@H]2O[C@H](C)C[C@H](N(C)C)[C@H]2O)[C@](C)(O)C[C@@H](C)CN(C)[C@H](C)[C@@H](O)[C@]1(C)O` [AZITHROMYCIN], the CC50 in test [1] is more than 10 µM. Moreover, the MIC was more than 10 µM in test [2]; more than 10 µM in test [3]; 10 µM (≈ 7.49 µg/mL) in test [4]; more than 10 µM in test [5]; 10 µM (≈ 7.49 µg/mL) in test [6]; more than 10 µM in test [7]. Also, in test [8], the MIC was more than 10 µM.
In test [1], `COC(=O)Nc1nc2cc(C(=O)c3ccc(F)cc3)ccc2[nH]1` [FLUBENDAZOLE] returned a CC50 of 7.02 µM. Moreover, the MIC in test [2], in test [3], in test [4], in test [5], in test [6] and in test [7] was more than 10 µM each time. In test [8], this compound showed an MIC of more than 10 µM.
As for `CC1(C)SC2C(NC(=O)Cc3ccccc3)C(=O)N2C1C(=O)O` (configuration not stated), the CC50 in test [1] was more than 10 µM. For the same compound, the MIC in test [2], in test [3], in test [4], in test [5], in test [6] and in test [7] was more than 10 µM in each case. The MIC in test [8] was more than 10 µM.
For the compound `CCCCCCNC(=O)n1cc(F)c(=O)[nH]c1=O` [CARMOFUR], the CC50 in test [1] is more than 10 µM. Moreover, the MIC is 5 µM (≈ 1.29 µg/mL) in test [2]; 2.5 µM (≈ 0.643 µg/mL) in test [3]; more than 10 µM in test [4]; more than 10 µM in test [5]; more than 10 µM in test [6]; more than 10 µM in test [7]. In test [8], this compound displayed an MIC of more than 10 µM.
In turn, `O=c1[nH]cc(F)c(=O)[nH]1` [FLUOROURACIL] showed a CC50 in test [1] of more than 10 µM. Further, the MIC in test [2] is 5 µM (≈ 0.65 µg/mL); in test [3], 2.5 µM (≈ 0.325 µg/mL); in test [4] it was more than 10 µM; in test [5] it was more than 10 µM; in test [6], more than 10 µM; in test [7] it was more than 10 µM. Besides, the MIC in test [8] is more than 10 µM.
The compound `CC(C)n1c(/C=C/C(O)CC(O)CC(=O)O)c(-c2ccc(F)cc2)c2ccccc21` (configuration not stated) [FLUVASTATIN] returned a CC50 in test [1] of more than 10 µM. The MIC in test [2], in test [3], in test [4], in test [5], in test [6] and in test [7] was more than 10 µM in each case. The compound further returned an MIC in test [8] of 5 µM (≈ 2.06 µg/mL).
Consider `OC(Cn1cncn1)(Cn1cncn1)c1ccc(F)cc1F` [FLUCONAZOLE], for which, in test [1], the CC50 is more than 10 µM. In addition, the MIC in test [2], in test [3], in test [4], in test [5], in test [6] and in test [7] was more than 10 µM in each case. Moreover, the MIC in test [8] is 2.5 µM (≈ 0.766 µg/mL).
With `COc1cc(C)c(Cc2cnc(N)nc2N)cc1OC` [ORMETOPRIM], in test [1], the CC50 was more than 10 µM. Further, the MIC in test [2] is more than 10 µM; in test [3] it was 5 µM (≈ 1.37 µg/mL); in test [4], 5 µM (≈ 1.37 µg/mL); in test [5], more than 10 µM; in test [6], more than 10 µM; in test [7], more than 10 µM. In addition, the MIC in test [8] was more than 10 µM.
Take `CO[C@H]1/C=C/O[C@@]2(C)Oc3c(C)c(O)c4c(O)c(c(C=NN5CCN(C6CCCC6)CC5)c(O)c4c3C2=O)NC(=O)/C(C)=C\C=C\[C@H](C)[C@H](O)[C@@H](C)[C@@H](O)[C@@H](C)[C@H](OC(C)=O)[C@@H]1C`: in test [1], the CC50 is more than 10 µM. In addition, the MIC is more than 10 µM in test [2]; not above 0.0781 µM in test [3]; 10 µM (≈ 8.77 µg/mL) in test [4]; more than 10 µM in test [5]; 10 µM (≈ 8.77 µg/mL) in test [6]; more than 10 µM in test [7]. The compound also came in with an MIC in test [8] of more than 10 µM.
`CON=C(C(=O)NC1C(=O)N2C(C(=O)O)=C(COC(C)=O)CSC12)c1csc(N)n1` (configuration not stated) came in with a CC50 in test [1] of more than 10 µM. In addition, the MIC in test [2] is more than 10 µM; in test [3], more than 10 µM; in test [4], 0.312 µM (≈ 0.142 µg/mL); in test [5] it was more than 10 µM; in test [6], more than 10 µM; in test [7] it was more than 10 µM. The MIC in test [8] is more than 10 µM.
For the compound `Nc1nc(=O)[nH]cc1F` [FLUCYTOSINE], the CC50 in test [1] was more than 10 µM. In addition, the MIC is 0.625 µM (≈ 0.0807 µg/mL) in test [2]; more than 10 µM in test [3]; more than 10 µM in test [4]; more than 10 µM in test [5]; more than 10 µM in test [6]; more than 10 µM in test [7]. In test [8], this compound showed an MIC of 0.625 µM (≈ 0.0807 µg/mL).
Turning to `CCCCc1oc2ccccc2c1C(=O)c1cc(I)c(OCCN(CC)CC)c(I)c1` [AMIODARONE HYDROCHLORIDE], the CC50 in test [1] was more than 10 µM. In addition, the MIC in test [2] is 10 µM; in test [3] it was more than 10 µM; in test [5], more than 10 µM; in test [6] it was more than 10 µM; in test [7] it was more than 10 µM; in test [8], more than 10 µM.

The values above are taken from ChEMBL document CHEMBL4513141, “CO-ADD screening of NIH (USA) - Clinical Collection” (2021).
